{"source": "patent US20100021895A1", "about": "“Vectors for Inducing Homozygous Mutations and Methods of Using Same” (priority 2006, published 2010)", "test_system": "mouse embryonic stem cell clones, each containing a neomycin resistance gene (Neo) inserted by the GTR1.3 gene trap retrovirus", "experiment": "Carcinogen-induced LOH: frequency of colony formation in 2.0 mg/ml G418", "assay_type": "cell-based", "conditions": "for enhanced colony formation, average: at least 25 entrapment lines", "protocol": "Carcinogen-induced LOH was measured in a panel of 53 mouse embryonic stem cell clones, each containing a neomycin resistance gene (Neo) inserted into a different cellular gene (FIG. 9) by the GTR1.3 gene trap retrovirus. Gene entrapment by GTR1.3 involves selection for inserted Neo sequences that can splice to the 3′ ends of cellular genes (Lin et al.,). The disrupted genes were identified by sequencing Neo-gene fusion transcripts and were localized on the mouse genome. Previous studies have shown that cells homozygous for GTR1.3-induced mutations can be selected from heterozygous cells simply by selecting for resistance to higher concentrations of G418, a method first shown to select for homozygous mutations induced by gene targeting (15). Mitotic recombination appears to be the preferred mechanism of spontaneous LOH involving Neo genes inserted in ES cells (17) and LOH involving other genes and cell types in vivo (12, 13). LOH doubles the number of Neo genes per cell and thus allows moderately resistant cells to acquire resistance to higher concentrations of G418. The frequencies of spontaneous LOH measured at the 53 different sites ranged from 1.3×10^−5 to 1.2×10^−4 (Table 3), similar to those reported for other inserted neomycin resistance genes (15, 17) in ES cells and for loci such as TK and APRT in other cell types (12, 13).\nA variety of chemical agents were tested for their ability to enhance the frequencies at which mutant cells survive in 2.0 mg/ml G418. Methyl-nitrosurea (MNU) is an alkylating agent that produces a variety of mono-methylated DNA adducts, hydroxyurea (HU) stalls DNA replication complexes, doxorubicin interferes with DNA synthesis, methothrexate is a competitive inhibitor of dihydrofolate reductase but is not genotoxic, diepoxybutane and mitomycin C induce inter-strand DNA crosslinks, UV irradiation causes intra- and inter-strand pyrimidine dimmers, and ethidium bromide intercalates between DNA strands to damage DNA (For additional information about these agents see http://toxnet.nlm.nih.gov and http://lisntweb.swan.ac.uk/cmgt/index.htm). […] The fold-increase for MNU and HU ranged from 39-123 and 18-68, respectively (Table 3). The optimal concentrations of each agent to stimulate colony formation with minimal toxicity (<5% loss of cell viability) were determined in advance (FIG. 13). […] Each of these agents was tested two or more times on at least 25 entrapment lines.\nSerially diluted cells were plated onto 150 mm plates containing drug-free media and allowed to attach overnight. Unattached cells were removed and media containing the indicated concentrations of methyl-nitrosourea, hydroxyurea, ethidium bromide, doxorubicin, methotrexate, diepoxybutane, or mitomycin C was put onto cells for 4 hours (or cells were exposed to ultraviolet light in the absence of media and allowed to recover in drug-free media for 4 hours). Cells were then rinsed twice with drug-free media and selection media containing 0.0, 0.3, or 2.0 mg/ml G418 was put onto cells. After 12 days of selection, the number of colonies surviving was counted and the frequency of colony formation was determined by dividing the number of colonies obtained from 2.0 mg/ml G418 selection to that obtained from parallel experiments with 0.3 mg/ml G418 selection. TK gene loss was assessed following selection in media containing 2 μg/ml gancyclovir.\nTable 3. The frequency of colony formation in high concentrations of G418. The frequency of colony formation is listed for all 53 clones examined. Frequency was determined by dividing the number of colonies surviving 2.0 mg/ml G418 selection to the number surviving parallel experiments with 0.3 mg/ml G418 selection, and is the average of at least 3 independent experiments for each clone. Standard deviations, which ranged from 5 to 70% of the mean values, have been omitted for clarity. […]"}
{"smiles": "CC[n+]1c(-c2ccccc2)c2cc(N)ccc2c2ccc(N)cc21", "note": "[EtBr, ethidium bromide]", "values": [{"measurement": "effect on colony formation in high G418", "setting": "ethidium bromide 25 μg/ml", "result": "no significant effect"}]}
{"smiles": "CO[C@@]12[C@H](COC(N)=O)C3=C(C(=O)C(C)=C(N)C3=O)N1C[C@@H]1N[C@@H]12", "note": "[mitomycin C]", "values": [{"measurement": "enhanced colony formation, average", "setting": "mitomycin C 50 ng/mL", "result": 14, "unit": "fold"}]}
{"smiles": "C1OC1C1CO1", "note": "(stereo not drawn) [diepoxybutane]", "values": [{"measurement": "survival of mutant ES cells in media containing 2.0 mg/ml G418", "setting": "ES cells heterozygous for Xrcc5 entrapment mutation, 4 hours with 0.5 mM methyl-nitrosourea, 0.25 mM hydroxyurea or 100 ng/ml diepoxybutane", "result": "enhances the survival"}, {"measurement": "enhanced colony formation, average", "setting": "diepoxybutane 100 ng/mL", "result": 16, "unit": "fold"}]}
{"smiles": "COc1cccc2c1C(=O)c1c(O)c3c(c(O)c1C2=O)C[C@@](O)(C(=O)CO)C[C@@H]3O[C@H]1C[C@H](N)[C@H](O)[C@H](C)O1", "note": "[doxorubicin]", "values": [{"measurement": "enhanced colony formation, average", "setting": "doxorubicin 0.1 μM", "result": 15, "unit": "fold"}]}
{"smiles": "CN(Cc1cnc2nc(N)nc(N)c2n1)c1ccc(C(=O)N[C@@H](CCC(=O)O)C(=O)O)cc1", "note": "[methothrexate]", "values": [{"measurement": "effect on colony formation in high G418", "setting": "methothrexate 50 μM", "result": "no significant effect"}]}
